The structures appear in SMILES notation. Converted amounts (≈) assume the structure as drawn.

Holding throughout (assay type): functional
One test relates to Candida albicans. In words: Antifungal activity Candida albicans ATCC 90028 after 48 hr by broth microdilution method. The conditions noted are these: ATCC 90028, 48 h. In general terms: Broth dilution looks for growth in wells or tubes with falling amounts of substance.
The test system of a further test is Escherichia coli. In words: Antibacterial activity Escherichia coli ATCC 25922 after 16 to 20 hr by broth microdilution method.
The next test relates to Pseudomonas aeruginosa. In words: Antibacterial activity Pseudomonas aeruginosa ATCC 27853 after 16 to 20 hr by broth microdilution method.
In another test the test system is Enterococcus faecalis. In words: Antibacterial activity Enterococcus faecalis ATCC 29212 after 16 to 20 hr by broth microdilution method.
A further test concerns Staphylococcus aureus. In words: Antibacterial activity Staphylococcus aureus […] after 16 to 20 hr by broth microdilution method.

Broadly, the MIC is the lowest concentration found to suppress growth. Read a high MIC as a less susceptible organism. Take `Cc1ccc(N2Cc3ccccc3OCC2=S)cc1`: the minimum inhibitory concentration (MIC) came to 200 µg/mL (≈ 742 µM) against Candida albicans; 200 µg/mL (≈ 742 µM) in the test on Escherichia coli; 25 µg/mL (≈ 92.8 µM) against Pseudomonas aeruginosa; 25 µg/mL (≈ 92.8 µM) in the test with Enterococcus faecalis; 200 µg/mL (≈ 742 µM) in the test on Staphylococcus aureus.

As to `S=C1COc2ccccc2CN1c1cccc(Cl)c1`, the minimal inhibitory concentration (MIC) in the test with Candida albicans worked out at 800 µg/mL (≈ 2760 µM); in the test on Escherichia coli, 200 µg/mL (≈ 690 µM); in the test with Pseudomonas aeruginosa, 200 µg/mL (≈ 690 µM); in the test on Enterococcus faecalis, 100 µg/mL (≈ 345 µM); in the test with Staphylococcus aureus, 400 µg/mL (≈ 1380 µM).

On to `FC(F)(F)c1cccc(N2Cc3ccccc3OCC2=S)c1`, for which the MIC in the test with Candida albicans stood at 400 µg/mL (≈ 1240 µM); against Escherichia coli it was 100 µg/mL (≈ 309 µM); in the test on Pseudomonas aeruginosa it was 50 µg/mL (≈ 155 µM); in the test with Enterococcus faecalis, 25 µg/mL (≈ 77.3 µM); against Staphylococcus aureus, 400 µg/mL (≈ 1240 µM).

In the case of `O=C(O)c1cn(C2CC2)c2cc(N3CCNCC3)c(F)cc2c1=O` [CIPROFLOXACIN], the minimal inhibitory concentration (MIC) with Escherichia coli was 0.04 µg/mL (≈ 0.121 µM); against Enterococcus faecalis, 0.25 µg/mL (≈ 0.754 µM); in the test with Staphylococcus aureus it was 0.25 µg/mL (≈ 0.754 µM).

In the case of `OC(Cn1cncn1)(Cn1cncn1)c1ccc(F)cc1F` [FLUCONAZOLE], inhibition of growth against Candida albicans (MIC) required 0.25 µg/mL (≈ 0.816 µM).

`Fc1ccc(N2Cc3ccccc3OCC2=S)cc1`: the MIC was 400 µg/mL (≈ 1460 µM) against Candida albicans; 100 µg/mL (≈ 366 µM) in the test on Escherichia coli; 100 µg/mL (≈ 366 µM) against Pseudomonas aeruginosa; 50 µg/mL (≈ 183 µM) with Enterococcus faecalis; 800 µg/mL (≈ 2930 µM) in the test with Staphylococcus aureus.

As for `O=[N+]([O-])c1cccc(N2Cc3ccccc3OCC2=S)c1`, the MIC with Candida albicans stood at 200 µg/mL (≈ 666 µM); with Escherichia coli, 100 µg/mL (≈ 333 µM); against Pseudomonas aeruginosa, 25 µg/mL (≈ 83.2 µM); with Enterococcus faecalis, 25 µg/mL (≈ 83.2 µM); with Staphylococcus aureus, 200 µg/mL (≈ 666 µM).

Regarding `Cc1cccc(N2Cc3ccccc3OCC2=S)c1`, the minimum inhibitory concentration (MIC) with Candida albicans was 800 µg/mL (≈ 2970 µM); in the test on Escherichia coli it was 400 µg/mL (≈ 1480 µM); against Pseudomonas aeruginosa, 100 µg/mL (≈ 371 µM); against Enterococcus faecalis, 50 µg/mL (≈ 186 µM); in the test on Staphylococcus aureus it was 800 µg/mL (≈ 2970 µM).

With `O=[N+]([O-])c1ccc(N2Cc3ccccc3OCC2=S)cc1`, the MIC against Candida albicans is 800 µg/mL (≈ 2660 µM); in the test with Escherichia coli, 200 µg/mL (≈ 666 µM); in the test with Pseudomonas aeruginosa, 50 µg/mL (≈ 166 µM); with Enterococcus faecalis, 50 µg/mL (≈ 166 µM); against Staphylococcus aureus, over 1600 µg/mL.

As for `S=C1COc2ccccc2CN1c1ccccc1`, the minimum inhibitory concentration (MIC) against Candida albicans is 800 µg/mL (≈ 3130 µM); against Escherichia coli, 200 µg/mL (≈ 783 µM); against Pseudomonas aeruginosa it was 100 µg/mL (≈ 392 µM); against Enterococcus faecalis it was 100 µg/mL (≈ 392 µM); in the test on Staphylococcus aureus it was 800 µg/mL (≈ 3130 µM).

As to `CN(C)c1ccc(N2Cc3ccccc3OCC2=S)cc1`, the MIC with Candida albicans amounted to 800 µg/mL (≈ 2680 µM); in the test with Escherichia coli, 200 µg/mL (≈ 670 µM); in the test on Pseudomonas aeruginosa, 100 µg/mL (≈ 335 µM); in the test on Enterococcus faecalis, 25 µg/mL (≈ 83.8 µM); in the test on Staphylococcus aureus, 400 µg/mL (≈ 1340 µM).

Turning to `CC1(C)S[C@@H]2[C@H](NC(=O)[C@H](N)c3ccccc3)C(=O)N2[C@H]1C(=O)O` [AMPICILLIN], the MIC against Escherichia coli stood at 6.25 µg/mL (≈ 17.9 µM); against Enterococcus faecalis, 0.78 µg/mL (≈ 2.23 µM); in the test on Staphylococcus aureus it was 0.78 µg/mL (≈ 2.23 µM).

As for `COc1ccc(N2Cc3ccccc3OCC2=S)cc1`, the minimum inhibitory concentration (MIC) against Candida albicans worked out at 800 µg/mL (≈ 2800 µM); in the test with Escherichia coli, 200 µg/mL (≈ 701 µM); in the test on Pseudomonas aeruginosa, 100 µg/mL (≈ 350 µM); against Enterococcus faecalis it was 50 µg/mL (≈ 175 µM); with Staphylococcus aureus it was 400 µg/mL (≈ 1400 µM).

Take `S=C1COc2ccccc2CN1c1ccc(I)cc1`: the minimal inhibitory concentration (MIC) in the test on Candida albicans was 800 µg/mL (≈ 2100 µM); in the test with Escherichia coli, 100 µg/mL (≈ 262 µM); in the test with Pseudomonas aeruginosa, 50 µg/mL (≈ 131 µM); in the test on Enterococcus faecalis, 50 µg/mL (≈ 131 µM); in the test on Staphylococcus aureus, 400 µg/mL (≈ 1050 µM).

As to `S=C1COc2ccccc2CN1c1ccc(Cl)cc1`, the MIC with Candida albicans worked out at 800 µg/mL (≈ 2760 µM); in the test on Escherichia coli it was 400 µg/mL (≈ 1380 µM); against Pseudomonas aeruginosa it was 100 µg/mL (≈ 345 µM); with Enterococcus faecalis it was 25 µg/mL (≈ 86.3 µM); in the test on Staphylococcus aureus, 400 µg/mL (≈ 1380 µM).

For `COc1cccc(N2Cc3ccccc3OCC2=S)c1`, the minimum inhibitory concentration (MIC) against Candida albicans is 100 µg/mL (≈ 350 µM); in the test with Escherichia coli, 100 µg/mL (≈ 350 µM); in the test on Pseudomonas aeruginosa, 50 µg/mL (≈ 175 µM); with Enterococcus faecalis, 25 µg/mL (≈ 87.6 µM); against Staphylococcus aureus, 200 µg/mL (≈ 701 µM).

With `S=C1COc2ccccc2CN1c1ccc(Br)cc1`, the MIC in the test with Candida albicans worked out at 100 µg/mL (≈ 299 µM); with Escherichia coli, 100 µg/mL (≈ 299 µM); against Pseudomonas aeruginosa it was 25 µg/mL (≈ 74.8 µM); against Enterococcus faecalis it was 12.5 µg/mL (≈ 37.4 µM); against Staphylococcus aureus, 100 µg/mL (≈ 299 µM).

The values above are taken from ChEMBL document CHEMBL3045204, “Synthesis and structureantibacterial activity relationship studies of 4-substituted phenyl-4,5-dihydrobenzo[f][1,4]oxazepin-3(2H)-thiones” (2011).
